From patent US20200131156A1, “ARYLSULFONYLPYROLECARBOXAMIDE DERIVATIVES AS Kv3 POTASSIUM CHANNEL ACTIVATORS” (H. Lundbeck A/S, priority 2018, published 2020)

Target: T1, hKv3.1b (Homo sapiens, UniProt P48547)
T1 construct: expressed in transfected cells
T1 sequence (P48547 1-585 isoform P48547-2): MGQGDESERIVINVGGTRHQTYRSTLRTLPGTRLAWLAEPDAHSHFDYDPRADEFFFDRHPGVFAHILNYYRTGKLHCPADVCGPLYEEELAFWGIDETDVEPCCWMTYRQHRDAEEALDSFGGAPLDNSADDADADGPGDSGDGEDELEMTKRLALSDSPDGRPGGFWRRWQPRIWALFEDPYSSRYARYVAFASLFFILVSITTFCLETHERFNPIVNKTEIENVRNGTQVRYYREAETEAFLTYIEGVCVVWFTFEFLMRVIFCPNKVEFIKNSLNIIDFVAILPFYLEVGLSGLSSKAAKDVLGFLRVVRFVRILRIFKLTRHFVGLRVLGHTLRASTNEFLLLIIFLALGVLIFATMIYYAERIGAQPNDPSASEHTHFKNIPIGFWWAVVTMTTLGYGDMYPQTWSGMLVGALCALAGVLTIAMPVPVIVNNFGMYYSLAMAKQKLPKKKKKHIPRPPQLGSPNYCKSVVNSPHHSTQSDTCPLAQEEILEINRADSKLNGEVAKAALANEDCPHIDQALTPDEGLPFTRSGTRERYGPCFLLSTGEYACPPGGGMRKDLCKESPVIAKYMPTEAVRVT
Assay: Automated patch clamp (QPatch-16x) on HEK-293 cells stably expressing hKv3.1b
Format: cell-based
Conditions: for ECdelta5 mV: concentration needed to shift the activation threshold 5 mV; for Threshold Shift: maximum absolute hyperpolarizing shift of activation threshold at tested concentrations 0.37-30 μM
In short: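 Whole-cell automated patch clamp, extracellular pH 7.4, 4 mM Na2ATP intracellular; holding −80 mV, 200 ms steps −70 to +10 mV. Five ascending concentrations (0.37–30 μM) per cell, ~3 min each, 0.33% DMSO vehicle. Activation threshold (5% of vehicle peak at 10 mV) shift fitted sigmoidally; ECdelta5 mV read from curve.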

| ECdelta5 mV [µM] | Threshold Shift [mV] | Compound |
| --- | --- | --- |
| 4.1 | 17 | COc1ncc(CNC(=O)c2ccn(S(=O)(=O)c3ccc(OC(F)F)cc3)c2)cn1 [Compound 112, 1-[4-(difluoromethoxy)benzene-1-sulfonyl]-N-[(2-methoxypyrimidin-5-yl)methyl]-1H-pyrrole-3-carboxamide] |
| 2.3 | 24 | Cc1cnc(CNC(=O)c2ccn(S(=O)(=O)c3ccc(F)cc3)c2)cn1 [Compound 6, 1-(4-fluorophenyl)sulfonyl-N-[(5-methylpyrazin-2-yl)methyl]pyrrole-3-carboxamide] |
| 4.9 | 12 | Cc1cnc(CNC(=O)c2ccn(S(=O)(=O)c3cccc(C)c3)c2)nc1 [Compound 62, 1-(3-methylbenzene-1-sulfonyl)-N-[(5-methylpyrimidin-2-yl)methyl]-1H-pyrrole-3-carboxamide] |
| 1.1 | 24 | Cc1ccc(S(=O)(=O)n2ccc(C(=O)NCc3cnc(C)cn3)c2)c(F)c1 [Compound 95, 1-(2-fluoro-4-methyl-phenyl)sulfonyl-N-[(5-methylpyrazin-2-yl)methyl]pyrrole-3-carboxamide] |
